From patent US20220296572A1, “IMMUNOSUPPRESSIVE THERAPIES FOR USE WITH CARDIOMYOCYTE CELL THERAPIES, AND ASSOCIATED METHODS AND COMPOSITIONS” (Sana Biotechnology, Inc., priority 2021, published 2022)

Experiments:
[1] = transplant recipients; cited from earlier work
[2] = Tacrolimus blood trough level in the rhesus recipient; format: in vivo, rhesus macaque (Macaca mulatta); conditions: subcutaneously twice per day
Description: Beginning five days prior to delivery of the cell therapy composition and continuing for 16 weeks after delivery, the rhesus recipient was treated daily with tacrolimus and MMF. Tacrolimus was provided subcutaneously twice per day at a dose yielding a blood trough level of approximately 5-10 ng/mL. MMF was provided orally twice per day, for a total dose of 250 mg MMF per day. If a subject cannot tolerate oral dosing of MMF, MMF can be alternatively provided by intravenous administration. In some cases, if a subject cannot tolerate oral MMF, the subject is administered intravenous MMF until the subject can tolerate oral MMF, at which point the subject is switched from intravenous to oral MMF Immune rejection of the riPSC-CMs 16 weeks after delivery was determined by histopathological analysis.

T cells = conditions: relative to CsA; cited from earlier work

Row | Blood trough level [2] [ng/mL] | SMILES | Safety profile relative to MMF [1] | Therapeutic equivalence to MMF [1] | Concentrations giving similar effects to CsA, times lower (T cells) [times]
1 | – | COc1c(C)c2c(c(O)c1C/C=C(\C)CCC(=O)[O-])C(=O)OC2.[Na+] [MS, mycophenolate sodium] | comparable safety profile | therapeutically equivalent to MMF | –
2 | 5 to 10 | C=CC[C@@H]1/C=C(\C)C[C@H](C)C[C@H](OC)[C@H]2O[C@@](O)(C(=O)C(=O)N3CCCC[C@H]3C(=O)O[C@H](/C(C)=C/[C@@H]3CC[C@@H](O)[C@H](OC)C3)[C@H](C)[C@@H](O)CC1=O)[C@H](C)C[C@@H]2OC [Tacrolimus, tacrolimus] | – | – | 100
